# Read-outs that look alike come from different tables or passages of the source.
# Legend:
# [1] = system: B. mallei; test: microbe, parasite or virus in culture; type: cell-based
# [2] = system: Y. pestis; test: microbe, parasite or virus in culture; type: cell-based
# [3] = system: B. anthracis; test: microbe, parasite or virus in culture; type: cell-based
# [4] = system: Legionella pneumophila; test: microbe, parasite or virus in culture; type: cell-based
# [5] = system: Y. pestis (C092); parameters: species or system BALB/c mice; conditions: mouse, in vivo; for PD50: ip
# [6] = system: B. anthracis AMES strain; parameters: species or system BALB/c mice; conditions: mouse, in vivo; for PD50: ip
# [7] = system: Y. pestis; conditions: cited from earlier work
# [8] = system: B. anthracis; conditions: cited from earlier work
# [9] = system: B. mallei; conditions: cited from earlier work
# [10] = system: B. pseudomallei; conditions: cited from earlier work
# [11] = system: F. tularensis; test: microbe, parasite or virus in culture; type: cell-based
# [12] = system: B. pseudomallei; test: microbe, parasite or virus in culture; type: cell-based; conditions: Burkholderia pseudomallei
# [13] = system: Chlamydia pneumonia; test: microbe, parasite or virus in culture; type: cell-based
# [14] = system: E. faecalis; test: animal or person; type: in vivo, Mice; conditions: Enterococcus faecalis, in Mus musculus, read-out: PD50/ED50
# [15] = system: H. influenza; test: animal or person; type: in vivo, Mice; conditions: Mus musculus, read-out: PD50/ED50
# [16] = system: E. coli; test: animal or person; type: in vivo, Mice; conditions: Escherichia coli, in Mus musculus, read-out: PD50/ED50
# [17] = system: B. mallei (China 7); parameters: species or system BALB/c mice; conditions: mouse, in vivo
# [18] = system: bacteria isolated from clinical specimens; type: cell-based
# [19] = system: Staphylococcus aureus (MSSA); conditions: cited from earlier work
# [20] = system: Staphylococcus aureus (MRSA); conditions: cited from earlier work
# [21] = system: Coagulase-negative staphylococci; conditions: cited from earlier work
# [22] = system: Enterococcus faecalis (VSE); conditions: cited from earlier work
# [23] = system: Enterococcus facecalis (VRE); conditions: cited from earlier work
# [24] = system: Enterococcus faecium (VSE); conditions: cited from earlier work
# [25] = system: Enterococcus faecium (VRE); conditions: cited from earlier work
# [26] = system: Streptococcus pneumonia; conditions: cited from earlier work
# [27] = system: Streptococcus pneumoniae (PRSP); conditions: cited from earlier work
# [28] = system: Streptococcus pyogenes; conditions: cited from earlier work
# [29] = system: Streptococcus agalactiae; conditions: cited from earlier work
# [30] = system: Haemophilus influenza; conditions: cited from earlier work
# [31] = system: Moraxella catarrhalis; conditions: cited from earlier work
# [32] = system: Escherichia coli; conditions: cited from earlier work
# [33] = system: Enterobacter aerogenes; conditions: cited from earlier work
# [34] = system: Enterobacter cloacae; conditions: cited from earlier work
# [35] = system: Klebsiella pneumonia; conditions: cited from earlier work
# [36] = system: Proteus mirabilis; conditions: cited from earlier work
# [37] = system: Salmonella spp.; conditions: cited from earlier work
# [38] = system: Shigella spp.; conditions: cited from earlier work
# [39] = system: Pseudomonas aeruginosa; conditions: cited from earlier work
# [40] = system: Acinetobacter baumannii; conditions: cited from earlier work
# [41] = system: Burkholderia cepacia; conditions: cited from earlier work
# [42] = system: Bacteroides fragilis; conditions: cited from earlier work
# [43] = system: Clostridium difficile; conditions: cited from earlier work
# [44] = system: Clostridium perfringens; conditions: cited from earlier work
compound,measurement,setting,value
"CC[C@H]1OC(=O)[C@H](C)[C@@H](O[C@H]2C[C@@](C)(OC)[C@@H](O)[C@H](C)O2)[C@H](C)[C@@H](O[C@@H]2O[C@H](C)C[C@H](N(C)C)[C@H]2O)[C@](C)(O)C[C@@H](C)CN(C)[C@H](C)[C@@H](O)[C@]1(C)O [azithromycin, reference compound]",MIC,[1]; Burkholderia mallei,0.5 µg/mL
"C[C@H]1c2cccc(O)c2C(=O)C2=C(O)[C@]3(O)C(=O)C(C(N)=O)=C(O)[C@@H](N(C)C)[C@@H]3[C@@H](O)[C@@H]21 [Doxycycline, reference compound]",MIC,[2]; Yersinia pestis,0.5 µg/mL
same,MIC,[3]; Bacillus anthracis,0.03 µg/mL
same,MIC,[1]; Burkholderia mallei,0.06 µg/mL
same,MIC50,[4],1 µg/mL
same,MIC90,[4],1 µg/mL
same,PD50,[5],29.7 (range of 20.7 to 38.8) mg/kg
same,PD50,[6],2.0 (range of 1.4 to 2.6) mg/kg
O=C(O)c1cn(C2CC2)c2cc(N3CCNCC3)c(F)cc2c1=O [Ciprofloxacin],MIC90,[7],0.03125 µg/mL
same,MIC range,[7],3.9 to 62.5 ng/mL
same,MIC50,[8],0.0625 µg/mL
same,MIC90,[8],0.125 µg/mL
same,MIC range,[8],0.03125 to .25 µg/mL
same,MIC50,[9],0.5 µg/mL
same,MIC90,[9],1 µg/mL
same,MIC range,[9],0.0625 to 1 µg/mL
same,MIC50,[10],2 µg/mL
same,MIC90,[10],4 µg/mL
same,MIC range,[10],0.5 to 32 µg/mL
"CN(C)c1cc(CNCC(C)(C)C)c(O)c2c1C[C@H]1C[C@H]3[C@H](N(C)C)C(O)=C(C(N)=O)C(=O)[C@@]3(O)C(O)=C1C2=O [Compound A, 9-[(2,2-dimethyl-propylamino)-methyl]minocycline]",MIC range,[2],0.125 to 2 µg/mL
same,in vitro activity (in words),[2],significant activity
same,MIC,[2]; Yersinia pestis,1 µg/mL
same,MIC50,[2]; Yersinia pestis,1 µg/mL
same,MIC90,[2]; Yersinia pestis,1 µg/mL
same,MIC range,[3],<0.03125 to 0.0625 µg/mL
same,in vitro activity (in words),[3],highly active
same,MIC,[3]; Bacillus anthracis,< 0.03 µg/mL
same,MIC50,[3]; Bacillus anthracis,0.0312 µg/mL
same,MIC90,[3]; Bacillus anthracis,0.0625 µg/mL
same,MIC range,[11],0.5 to 2 µg/mL
same,in vitro activity (in words),[11],significant activity
same,MIC50,[11]; Francisella tularensis,1 µg/mL
same,MIC90,[11]; Francisella tularensis,2 µg/mL
same,MIC range,[1],<0.03125 to 0.5 µg/mL
same,in vitro activity (in words),[1],highly active
same,MIC,[1]; Burkholderia mallei,0.25 µg/mL
same,MIC50,[1]; Burkholderia mallei,0.125 µg/mL
same,MIC90,[1]; Burkholderia mallei,0.25 µg/mL
same,MIC50,[12],64 µg/mL
same,MIC90,[12],> 64 µg/mL
same,MIC50,[4],0.25 µg/mL
same,MIC90,[4],0.25 µg/mL
same,MIC50,[13],0.25 µg/mL
same,MIC90,[13],0.25 µg/mL
same,ED50,[14],4.5 mg/kg
same,ED50,[15],4.7 mg/kg
same,ED50,[16],4.3 mg/kg
same,"percent survival (comparison in words, FIG. 1)",[5]; 40 mg/kg,more effective as doxycycline at 40 mg/kg and is at least as effective or ciprofloxacin at 15 mg/kg
same,PD50,[5],23.5 (range of 20.1 to 27.0 mg/kg)
same,"percent survival (comparison in words, FIG. 2)",[6],as effective as doxycycline or ciprofloxacin
same,PD50,[6],0.8 (range of 0.6 to 1.1 mg/kg)
same,"percent survival (in words, FIG. 3)",[17],as effective as doxycycline or azithromycin
same,effect of serum or lung surfactant on in vitro activity,[18],not affected by serum or lung surfactant
same,MIC50,[19],0.25/0.12 μg/mL
same,MIC90,[19],0.25/0.25 μg/mL
same,MIC50,[20],0.25/0.12 μg/mL
same,MIC90,[20],0.25/2 μg/mL
same,MIC50,[21],0.25/0.25 μg/mL
same,MIC90,[21],1/2 μg/mL
same,MIC50,[22],0.25/8 μg/mL
same,MIC90,[22],0.5/8^ μg/mL
same,MIC50,[23],0.12/0.25 μg/mL
same,MIC90,[23],0.25/8 μg/mL
same,MIC50,[24],0.12/0.12 μg/mL
same,MIC90,[24],0.12/16^ μg/mL
same,MIC50,[25],0.12/8 μg/mL
same,MIC90,[25],0.12/8 μg/mL
same,MIC50,[26],0.12/0.25 μg/mL
same,MIC90,[26],0.12/8 μg/mL
same,MIC50,[27],0.12/8 μg/mL
same,MIC90,[27],0.12/8 μg/mL
same,MIC50,[28],0.12/25^ μg/mL
same,MIC90,[28],0.12/0.25 μg/mL
same,MIC50,[29],0.25/8 μg/mL
same,MIC90,[29],0.25/16^ μg/mL
same,MIC50,[30],0.5/0.5 μg/mL
same,MIC90,[30],1/1 μg/mL
same,MIC50,[31],0.25/0.25 μg/mL
same,MIC90,[31],0.25/0.25 μg/mL
same,MIC50,[32],2/8 μg/mL
same,MIC90,[32],4/>32 μg/mL
same,MIC50,[33],2/2 μg/mL
same,MIC90,[33],4/4 μg/mL
same,MIC50,[34],2/4 μg/mL
same,MIC90,[34],16/16 μg/mL
same,MIC50,[35],2/2 μg/mL
same,MIC90,[35],8/>32 μg/mL
same,MIC50,[36],16/16 μg/mL
same,MIC90,[36],32/>32 μg/mL
same,MIC50,[37],2/4 μg/mL
same,MIC90,[37],8/32 μg/mL
same,MIC50,[38],1/1 μg/mL
same,MIC90,[38],2/32 μg/mL
same,MIC50,[39],32/32 μg/mL
same,MIC90,[39],64/32 μg/mL
same,MIC50,[40],0.25/0.25 μg/mL
same,MIC90,[40],4/2 μg/mL
same,MIC50,[41],2/4 μg/mL
same,MIC90,[41],64/>32 μg/mL
same,MIC50,[42],1/8 μg/mL
same,MIC90,[42],4/16 μg/mL
same,MIC50,[43],0.12/0.03 μg/mL
same,MIC90,[43],0.12/1 μg/mL
same,MIC50,[44],1/2 μg/mL
same,MIC90,[44],4/8 μg/mL

# — patent publication US11129839B2, “Minocycline compounds for biodefense” (priority 2015, dated 2021)
